Laboratory results published in patent publication US20030021782A1, “Chlamydia infection” (priority 2001, published 2003).

System: C. pneumoniae strain AR-39 in HMEC-1 cells
Assay: Assay for growth (infectivity) enhancing activity: C. pneumoniae inclusion counts in HMEC-1 cell culture
Format: cell-based
Conditions: for enhancement of growth of C. pneumoniae strain AR-39 in HMEC-1 cells: added to culture medium at 1, 5 and 10 ng/mL, 3 days incubation
Method: To assay for growth enhancing activity, conditioned medium, fractions of conditioned medium, insulin-like growth factor-1 (IGF-1) and IGF-2 were tested in HMEC-1 cell culture for enhanced susceptibility to C. pneumoniae. HMEC-1 cells were trypsinized from stock cultures and plated to achieve a cell monolayer in 24 h in 24-well culture plates. A 12 mm diameter glass coverslip was placed in each well for growing cells for ease of staining for microscopic observation and counting inclusions for assaying titers. For inoculation of cell culture, the culture fluid was removed and the cell monolayer washed three times with Hank's balanced salt solution. Two-tenth mL of inoculum were added per well and the plate was centrifuged for 1 h at 700 to 800× g at 25° C. After centrifugation, the inocula were removed, 1 mL of specified culture medium was added, and the plates were incubated in a CO2 incubator at 35° C. for 3 days. After incubation, coverslips were removed, fixed with methanol and stained with a Chlamydia genus-specific monoclonal antibody conjugated with fluorescein isothiocyanate. Inclusions were counted in 30 random fields at ×400 magnification. The infectivity titers were expressed as inclusion forming units (ifus) per milliliter, which had been adjusted for dilution factor and inoculum size (Furness et al., J. Gen Micro. 23:213-9, 1960). Triplicate coverslips were counted in each experiment. Experiments were repeated 2 or 3 times.
Characterization of Chlamydial growth enhancing factors was carried out as follows. Conditioned medium of a one day old culture of U937 cells in RPMI supplemented with 2% fetal calf serum was used. Conditioned medium was heated at 70° C. for 2 h and tested for growth enhancing activity against AR-39 in HMEC-1 cells. An equal volume of conditioned medium was mixed with fresh endothelial basal medium containing 2% fetal calf serum for culturing infected HMEC-1 cells.
For determining molecular size, one day old conditioned medium of U937 cells cultured in serum-free macrophage culture medium was fractionated into molecular weight ranges of larger than 30,000, 30,000 to 10,000, 10,000 to 5,000 and smaller than 5,000 using three different pore size filters, Biomax-30, Biomax-10 and Biomax-5 ultrafilters (Millipore, Bedford, Mass.) with the molecular weight cut-off of 30,000; 10,000; and 5,000, respectively. For size fractionation, a starting volume of 200 mL of conditioned medium was used. Each fraction was concentrated to 2 mL (a 100× concentration). The remaining filtrate which had been passed through the 5,000 molecular weight pore size filter also was saved for testing. That fraction and the starting conditioned medium were tested without concentration. […]

Row | Substance | enhancement of growth of C. pneumoniae strain AR-39 in HMEC-1 cells | enhancing activity (increase) (0.5 ng/mL, p<0.05, N=3) | enhancing activity (increase) (5 ng/mL, p<0.001)
1 | insulin-like growth factor-1 [IGF-1] | not | – | –
2 | insulin-like growth factor-2 [IGF-2] | enhanced the growth | 35% | 256%
